This note sets out measurements from patent US12391701B2, “Chromene-based compounds, methods and uses thereof” (University of Minho, priority 2019, dated 2025).

What is called IC50 is the point on the concentration scale where inhibition reaches its midpoint. The low end stands for greater potency in that assay, the high end for weaker potency in that assay.

SMILES strings stand for the structures.

One test deals with Hs578t cells. Kind of test: Annexin V/PI flow cytometry, Hs578t. Format: cell-based, human. To be noted: IC50 concentration; 24 h. The source says: In an embodiment, to understand the mechanisms leading to cell death, cells were studied for the induction of apoptosis by flow cytometry. […] Externalization of phosphatidylserine occurs during the early apoptotic events. While annexin V binds to phosphatidylserine, PI stains only cells that have lost their membrane integrity, an experimental procedure which allows the discrimination between viable cells, early apoptotic cells, late apoptotic/necrotic cells or necrotic cells.
In an embodiment, MCF-7, Hs578t and 786-O cells were seeded in 6-well culture plates and allowed to adhere over 18-20 hours in a complete DMEM (for MCF-7 and Hs578t cells) and complete RPMI (for 786-O cells) medium to detect apoptosis via flow cytometry analysis. […] Triplicates were performed in each experiment. Floating and adherent cells were collected and combined by centrifugation. Elimination of the supernatant was followed by addition of 1 mL of Binding Buffer. 8 μL FITC annexin V (556419, BD Pharmingen) and 30 μl of PI (50 μg/mL, P1304MP, Invitrogen) were added to the cell pellet. Samples were incubated in the dark for 15 min at room temperature. A further 200 μL of Binding Buffer was added to each sample. PI signal was measured using FACS LSRII flow cytometer (BD Biosciences®) with 488 nm excitation laser. The annexin V signal was collected through a 488 nm blocking filter, a 550 nm long-pass dichroic with a 525 nm band pass. Signals were captured and FACS Diva was used as the acquisition software. The percentage of cells in each phase was analysed using the FlowJo 7.6 (Tree Star®) software. Three independent biological replicates were performed.
In general terms: A flow cytometer gives signals particle by particle.

The subject of test [1] is TNBC cell line MDA-MB-468. Kind of test: Cell viability assay (MTS), MDA-MB-468. The class given is cell-based. To be noted: Homo sapiens, 72 h incubation. An excerpt: In an embodiment, for a comparison study, monomers and respective dimers were selected and further evaluated in Hs578t and MDA-MB-468 breast cell lines. […] These cell lines correspond to the basal-like subtype of breast cancer, included in the known triple negative subtype, since they are negative for Estrogen receptor (ER), progesterone receptor (PR) and Human epidermal growth factor receptor 2 (HER2) molecular markers. The clinical behaviour of these breast cancer subtype is very aggressive and there is still no specific molecular therapy available.
(§1) In an embodiment, three human breast cancer cell lines Hs578T, MDA-MB-468 and MCF-7, and a normal breast cell line MCF-10A, were obtained from ATCC (American Type Culture Collection). The cancer cell lines were cultured in Dulbecco's modified Eagle medium, 4.5 g/l glucose (DMEM, Gibco) supplemented with 10% heating inactivated Fetal Bovine Serum (FBS, Gibco) and 1% antibiotic solution (Penicillin-Streptomycin, Gibco). The normal cell line was cultured in Dulbecco's Modified Eagle Medium: Nutrient Mixture F-12 (DMEM/F12, Gibco) supplemented with 5% heating inactivated FBS (Gibco), 1% antibiotic solution (Penicillin-Streptomycin, Gibco), 1% steroid hormone (Hydrocortisone, Sigma-Aldrich), 0.1% peptide hormone (Insulin, Sigma-Aldrich) and 0.01% protein complex (Cholera Toxin, Gibco). Two distinct human acute myeloid leukemia (AML) cell lines, HL-60 (FAB M2) and KG-1 (erythroleukemia-FAB M6), and one human lymphoblastic leukemia (ALL) cell line, Jurkat (T cell type), were also used. These three cell lines were obtained from German Collection of Microorganisms and Cell cultures (DMSZ®, Deutsche Sammlung von Mikroorganismen and Zellkulturen in German). Cells were cultured in RPMI 1640 medium (Biochrom®-Merck Millipore) supplemented with 10% heating inactivated FBS (Biochrom®-Merck Millipore) and 1% antibiotic/antimitotic mixture (Invitrogen®). Three human glioblastoma (GBM) cell line models, two established and commercially available cell lines (U87MG and GAMG, kind gift from Rui M. Reis) and one primary GBM culture (GLIB) were also used. GBM cells were cultures in DMEM (Biochrom-Merck Millipore), all supplemented with 10% FBS. The Renal cell carcinoma cell lines A498, 786-O, Caki-2 and HK2 were obtained from ATCC. The cancer cell line A498 was cultured in MEM medium (Biochrom®-Merck Millipore), 786-O was cultured in RPMI 1640 medium (Biochrom®-Merck Millipore), Caki-2 was cultured in Mc Coys medium (Biochrom®-Merck Millipore) and HK2 was cultured in RPMI 1640 medium (Biochrom®-Merck Millipore). All the media were supplemented with 10% heat inactivated FBS (Biochrom®-Merck Millipore) and 1% antibiotic/antimitotic mixture (Invitrogen®). All cells were grown in a humidified incubator at 37° C. and 5% CO2. […]

The subject of test [2] is acute leukemia cell line KG-1. The test is described as follows: Cell viability MTS assay, KG-1. The class given is cell-based. To be noted: Homo sapiens, 72 hours. As for the experimental part: (§2) In an embodiment, the antiproliferative activity of compounds MC408, MC409, MC421 and MC406 was further determined against glioma cell lines (U87, GAMG and GL18) and acute leukemia cell lines (HL-60, KG-1 and Jurkat). This was done in order to evaluate if the compounds presented an equally interesting anticancer profile in other cancer cell models. Cell viability was determined using the MTS assay, after exposure of the cells to the respective compounds for 72 hours at appropriate concentration ranges to determine the respective IC50 values.
as §1

The subject of the next test is glioma cell line GL18. The test is described as follows: Cell viability MTS assay, GL18. The settings on record: Homo sapiens, 72 hours. The class given is cell-based. The protocol:
as §2, §1
Background: Formazan colour is commonly taken as a measure of viable cells.

The subject of test [3] is acute leukemia cell line Jurkat. Kind of test: Cell viability MTS assay, Jurkat. The class given is cell-based. The settings on record: Homo sapiens, 72 hours. As for the experimental part:
as §2, §1

The subject of a further test is Caki-2 parental cells. The test is described as follows: BrdU proliferation assay, Caki-2 parental. The settings on record: 24 and 48 hours, IC50 and ½IC50. The class given is cell-based.
In test [4] the test system is A498 rapamycin-resistant cells. The test is described as follows: BrdU proliferation assay, A498 rapamycin-resistant. Format: cell-based. To be noted: 24 and 48 hours, IC50 and ½IC50.
A further test concerns A498 parental cells. Kind of test: BrdU proliferation assay, A498 parental. Format: cell-based. The settings on record: 24 and 48 hours, IC50 and ½IC50.

For the molecule `COc1cccc2c1Oc1nc(-c3ccc(F)cc3)[nH]c1C2C1c2cccc(OC)c2Oc2nc(-c3ccc(F)cc3)[nH]c21` (centres unmarked) [MC406, 2,2′-bis(4-fluorophenyl)-5,5′-dimethoxy-1,1,9,9′-tetrahydro-9,9′-bichromeno[2,3-]imidazoles], the “induction of cell death by apoptosis (annexin V/PI)” value (shortened to “induction of cell death”) in the test on Hs578t cells is “induced cell death by apoptosis”. Also, the IC50 in test [1] stood at 320 nM; in test [2], 1.01 µM; with glioma cell line GL18 it was 0.3 µM; in test [3] it was 0.12 µM.

Turning to `COc1cccc2c1Oc1nc(-c3ccc(F)cc3)[nH]c1C2` [MC409, 2-(4-fluorophenyl)-5-methoxy-3,9-dihydrochromeno[2,3-d]imidazoles], in the test on Hs578t cells, the “induction of cell death” value is on record as “induced cell death by apoptosis”. For the same molecule, the IC50 was 120 nM in test [1], 1.02 µM in test [2], 0.6 µM with glioma cell line GL18 and 0.37 µM in test [3].

On to `COc1cccc2c1Oc1nc(-c3ccc(O)cc3)[nH]c1C2` [MC413, 4-(5-methoxy-3,9-dihydrochromeno[2,3-d]imidazol-2-yl)phenol], for which the entries for the “effect on cell proliferation (BrdU)” value (with Caki-2 parental cells; in test [4]; in the test with A498 parental cells) were “decrease cell proliferation”, “significant decrease in cell proliferation” and “significant decrease in cell proliferation”, respectively.

With `COc1cccc2c1Oc1nc(-c3ccc(Br)cc3)[nH]c1C2C1c2cccc(OC)c2Oc2nc(-c3ccc(Br)cc3)[nH]c21` (centres unmarked) [MC421, 2,2′-bis(4-bromophenyl)-5,5′-dimethoxy-1,1,9,9′-tetrahydro-9,9′-bichromeno[2,3-]imidazoles], the “effect on cell proliferation (BrdU)” value with Caki-2 parental cells is on record as “decrease cell proliferation”; in test [4] it was “significant decrease in cell proliferation”; with A498 parental cells, “significant decrease in cell proliferation”. For the same molecule, the “induction of cell death” value with Hs578t cells is “inducing cell death by apoptosis (early apoptosis)”. The IC50 was determined as 440 nM in test [1], 0.93 µM in test [2], 0.2 µM in the test with glioma cell line GL18 and 0.18 µM in test [3].

`COc1cccc2c1Oc1nc(-c3ccc(Br)cc3)[nH]c1C2` [MC408, 2-(4-bromophenyl)-5-methoxy-3,9-dihydrochromeno[2,3-d]imidazoles]: in the test with Hs578t cells, the “induction of cell death” value is “inducing cell death by apoptosis (early apoptosis)”. In addition, the IC50 in test [1] came out at 27 nM; in test [2], 0.64 µM; in the test on glioma cell line GL18, 1.6 µM; in test [3], 0.19 µM. Besides, the “effect on cell proliferation (BrdU)” value (in test [4]; with A498 parental cells) was “significant decrease in cell proliferation” throughout.

For `COc1cccc2c1Oc1nc(-c3ccccc3)[nH]c1C2` [MC350, 5-methoxy-2-phenyl-3,9-dihydrochromeno[2,3-d]imidazoles], in the test on Caki-2 parental cells, the “effect on cell proliferation (BrdU)” value is listed as “decrease cell proliferation”.
